Among the data in patent US8178535B2, “Substituted sulfonamide compounds having bradykinin 1 receptor activity and use thereof as medicaments” (Gruenenthal GmbH, priority 2008, dated 2012) are inhibition values, retold here.

For assay [1], the target named is T1, B1R receptor of rats (rB1R) (Rattus norvegicus, UniProt P97583).
T1 construct: host or cells: CHO K1 cells
T1 sequence (P97583 1-337): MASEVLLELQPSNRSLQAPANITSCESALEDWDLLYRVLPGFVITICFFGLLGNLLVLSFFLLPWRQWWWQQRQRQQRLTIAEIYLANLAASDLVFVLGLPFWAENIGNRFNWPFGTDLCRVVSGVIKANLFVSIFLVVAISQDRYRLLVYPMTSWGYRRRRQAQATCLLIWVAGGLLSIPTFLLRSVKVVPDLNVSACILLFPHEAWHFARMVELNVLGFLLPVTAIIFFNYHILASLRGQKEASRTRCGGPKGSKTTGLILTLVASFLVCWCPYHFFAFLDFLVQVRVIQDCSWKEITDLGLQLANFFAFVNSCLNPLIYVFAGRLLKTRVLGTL
Kind of assay: FLIPR Ca2+ assay (Fluo-4) on CHO K1 cells stably transfected with the B1R gene of rats. Format: cell-based. The settings on record: CHO-K1; test substance 10 μM; agonist Des-Arg9-bradykinin 100 nM; % inhibition compared to the maximum achievable inhibition. The gist of the method:
(§1)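 CHO K1 cells stably expressing human or rat B1R, Fluo-4 loaded, read by FLIPR (Ex 488/Em 540, peak fluorescence). Compound at 10 μM gives % activation vs agonist. After 10 min, agonist added (human: Lys-Des-Arg9-bradykinin 0.5 nM; rat: Des-Arg9-bradykinin 100 nM); % inhibition relative to maximal achievable inhibition.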

Assay [2] addresses T2, human B1R receptor (hB1R) (Homo sapiens, UniProt P46663).
T2 construct: host or cells: CHO K1 cells
T2 sequence (P46663 1-353): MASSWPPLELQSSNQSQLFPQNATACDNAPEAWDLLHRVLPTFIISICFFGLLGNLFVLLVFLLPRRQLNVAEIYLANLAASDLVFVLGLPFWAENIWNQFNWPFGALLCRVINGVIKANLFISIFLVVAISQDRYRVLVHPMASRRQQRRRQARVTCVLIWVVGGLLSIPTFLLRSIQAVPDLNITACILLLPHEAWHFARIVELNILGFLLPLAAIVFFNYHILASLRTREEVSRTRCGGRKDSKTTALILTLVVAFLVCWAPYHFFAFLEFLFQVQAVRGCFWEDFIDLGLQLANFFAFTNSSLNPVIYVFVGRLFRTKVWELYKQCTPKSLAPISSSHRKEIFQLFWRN
Nature of the assay: FLIPR Ca2+ assay (Fluo-4) on CHO K1 cells stably transfected with the human B1R gene. Type of assay: cell-based. The settings on record: CHO-K1; test substance 10 μM; agonist Lys-Des-Arg9-bradykinin 0.5 nM; % inhibition compared to the maximum achievable inhibition. The method in brief: as §1

Structures are written as SMILES.

In general, inhibition refers to the relative decrease from the control value, in per cent. On to `COc1cc(C)c(S(=O)(=O)N2CCCCC2COCC(=O)N2CCn3cc(Cc4ccncc4)nc3C2)c(C)c1` (stereo not shown) [(120), 2-((1-(4-Methoxy-2,6-dimethylphenylsulfonyl)piperidin-2-yl)methoxy)-1-(2-(pyridin-4-ylmethyl)-5,6-dihydroimidazo[1,2-a]pyrazin-7(8H)-yl)ethanone], for which the inhibition at 10 µM in assay [1] was found to be 105%; in assay [2], 99%.
Take `COc1cc(C)c(S(=O)(=O)N2CCCCC2CCC(=O)N2CCn3cc(Cc4ccncc4)nc3C2)c(C)c1` (stereo not shown) [(121), 3-(1-(4-Methoxy-2,6-dimethylphenylsulfonyl)piperidin-2-yl)-1-(2-(pyridin-4-ylmethyl)-5,6-dihydroimidazo[1,2-a]pyrazin-7(8H)-yl)propan-1-one]: the inhibition at 10 µM in assay [1] worked out at 51%; in assay [2] it was 66%.
